Data as given in ChEMBL document CHEMBL1125762, “Synthesis and pharmacological evaluation of 1-(aminomethyl)-3,4-dihydro-5-hydroxy-1H-2-benzopyrans as dopamine D1 selective ligands” (J Med Chem, 1991).

Columns and labels:
[1] = target: T1, 5-hydroxytryptamine receptor 1A (Rattus norvegicus, UniProt P19327); experiment: Compound was tested in vitro for binding affinity for 5-hydroxytryptamine 1A receptor
T1 sequence (P19327 whole entry): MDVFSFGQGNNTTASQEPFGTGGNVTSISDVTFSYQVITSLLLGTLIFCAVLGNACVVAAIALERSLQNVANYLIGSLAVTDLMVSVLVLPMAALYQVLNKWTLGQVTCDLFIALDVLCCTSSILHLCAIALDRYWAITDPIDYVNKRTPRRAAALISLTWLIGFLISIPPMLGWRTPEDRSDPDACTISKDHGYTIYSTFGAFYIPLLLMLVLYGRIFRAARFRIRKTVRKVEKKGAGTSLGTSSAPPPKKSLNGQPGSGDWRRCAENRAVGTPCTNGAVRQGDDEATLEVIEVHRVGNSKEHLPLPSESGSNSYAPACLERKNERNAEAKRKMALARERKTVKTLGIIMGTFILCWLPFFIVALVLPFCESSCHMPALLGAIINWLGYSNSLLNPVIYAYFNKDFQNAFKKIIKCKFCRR

[2] = target: Serotonin 2 (5-HT2) receptor (Rattus norvegicus, UniProt P30994+P08909+P14842); experiment: Compound was tested in vitro for binding affinity for 5-hydroxytryptamine 2 receptor; format: protein assay
[3] = target: T2, Adrenergic receptor alpha-1 (Homo sapiens, UniProt P35348+P25100+P35368); experiment: Compound was tested in vitro for binding affinity for alpha-1 adrenergic receptor; format: protein assay
T2 sequence (P35348 whole entry): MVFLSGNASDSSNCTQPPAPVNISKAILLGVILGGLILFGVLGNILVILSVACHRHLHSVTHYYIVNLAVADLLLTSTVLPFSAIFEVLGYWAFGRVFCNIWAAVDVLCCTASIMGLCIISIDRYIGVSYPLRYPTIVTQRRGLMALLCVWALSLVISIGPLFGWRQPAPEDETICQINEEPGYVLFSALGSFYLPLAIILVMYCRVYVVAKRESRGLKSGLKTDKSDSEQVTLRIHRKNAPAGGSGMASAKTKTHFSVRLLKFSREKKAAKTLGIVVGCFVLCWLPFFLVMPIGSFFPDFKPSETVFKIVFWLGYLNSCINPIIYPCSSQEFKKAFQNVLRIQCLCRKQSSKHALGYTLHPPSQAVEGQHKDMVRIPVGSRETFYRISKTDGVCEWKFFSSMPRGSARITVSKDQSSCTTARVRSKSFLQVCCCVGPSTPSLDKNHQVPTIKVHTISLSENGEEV
T2 sequence (P25100 whole entry): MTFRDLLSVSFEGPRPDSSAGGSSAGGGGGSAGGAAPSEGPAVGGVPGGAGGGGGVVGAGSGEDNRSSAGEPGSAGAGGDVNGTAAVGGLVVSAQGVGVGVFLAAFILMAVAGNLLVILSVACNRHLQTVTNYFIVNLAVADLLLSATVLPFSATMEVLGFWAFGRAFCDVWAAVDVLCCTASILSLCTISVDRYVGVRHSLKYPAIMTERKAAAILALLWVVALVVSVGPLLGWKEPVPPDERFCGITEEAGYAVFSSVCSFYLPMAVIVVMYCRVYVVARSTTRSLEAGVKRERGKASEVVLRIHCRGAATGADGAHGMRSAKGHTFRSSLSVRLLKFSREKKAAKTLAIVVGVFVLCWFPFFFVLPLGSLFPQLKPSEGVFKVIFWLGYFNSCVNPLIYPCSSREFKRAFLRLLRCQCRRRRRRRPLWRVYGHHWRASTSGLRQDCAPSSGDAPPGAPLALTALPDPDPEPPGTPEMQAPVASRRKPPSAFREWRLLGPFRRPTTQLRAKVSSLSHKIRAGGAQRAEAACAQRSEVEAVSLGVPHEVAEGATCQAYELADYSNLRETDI
T2 sequence (P35368 whole entry): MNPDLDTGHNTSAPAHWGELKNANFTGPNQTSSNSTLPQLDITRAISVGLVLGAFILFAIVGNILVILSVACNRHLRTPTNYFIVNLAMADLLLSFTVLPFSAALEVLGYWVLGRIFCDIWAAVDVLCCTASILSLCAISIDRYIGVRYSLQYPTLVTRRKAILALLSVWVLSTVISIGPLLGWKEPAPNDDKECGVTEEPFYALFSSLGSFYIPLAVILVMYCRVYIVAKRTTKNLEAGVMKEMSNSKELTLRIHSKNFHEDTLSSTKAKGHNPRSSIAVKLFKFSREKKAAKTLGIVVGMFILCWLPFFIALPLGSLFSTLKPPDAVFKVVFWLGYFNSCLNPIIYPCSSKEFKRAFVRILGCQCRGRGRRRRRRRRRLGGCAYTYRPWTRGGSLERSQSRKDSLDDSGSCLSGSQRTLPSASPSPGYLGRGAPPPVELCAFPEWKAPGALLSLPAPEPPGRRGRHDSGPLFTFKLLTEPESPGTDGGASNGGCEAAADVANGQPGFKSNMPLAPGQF

D(1) dopamine receptor = D(1) dopamine receptor (Carassius auratus, UniProt P35406); experiment: In vitro inhibition of dopamine stimulated adenylate cyclase
D(1) dopamine receptor, sequence (P35406 whole entry): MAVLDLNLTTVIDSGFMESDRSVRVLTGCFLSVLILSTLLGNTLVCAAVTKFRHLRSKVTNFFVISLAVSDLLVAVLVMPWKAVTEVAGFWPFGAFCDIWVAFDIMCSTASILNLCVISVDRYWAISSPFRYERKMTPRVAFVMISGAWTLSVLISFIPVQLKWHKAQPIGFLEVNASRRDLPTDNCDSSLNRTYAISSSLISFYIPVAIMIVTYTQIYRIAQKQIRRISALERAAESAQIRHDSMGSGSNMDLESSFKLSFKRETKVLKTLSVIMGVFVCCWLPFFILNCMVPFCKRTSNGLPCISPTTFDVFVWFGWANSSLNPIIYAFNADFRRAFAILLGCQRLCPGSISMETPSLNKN

[4] = target: T3, Adrenergic receptor alpha-2 (Homo sapiens, UniProt P08913+P18825+P18089); experiment: Compound was tested in vitro for binding affinity for alpha-2 adrenergic receptor; format: protein assay
T3 sequence (P08913 whole entry): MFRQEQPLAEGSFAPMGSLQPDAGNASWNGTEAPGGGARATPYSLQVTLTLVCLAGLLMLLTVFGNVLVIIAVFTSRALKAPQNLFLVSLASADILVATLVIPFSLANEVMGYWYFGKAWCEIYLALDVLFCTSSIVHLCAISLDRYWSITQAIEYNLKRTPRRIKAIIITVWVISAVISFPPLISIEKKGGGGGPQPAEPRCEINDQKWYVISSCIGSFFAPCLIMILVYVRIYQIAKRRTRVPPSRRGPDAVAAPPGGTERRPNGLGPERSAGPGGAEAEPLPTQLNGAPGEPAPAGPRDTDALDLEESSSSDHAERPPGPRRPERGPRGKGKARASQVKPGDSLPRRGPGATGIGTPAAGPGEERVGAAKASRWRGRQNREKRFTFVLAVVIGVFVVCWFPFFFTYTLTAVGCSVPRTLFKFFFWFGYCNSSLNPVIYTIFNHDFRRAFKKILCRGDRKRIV
T3 sequence (P18825 whole entry): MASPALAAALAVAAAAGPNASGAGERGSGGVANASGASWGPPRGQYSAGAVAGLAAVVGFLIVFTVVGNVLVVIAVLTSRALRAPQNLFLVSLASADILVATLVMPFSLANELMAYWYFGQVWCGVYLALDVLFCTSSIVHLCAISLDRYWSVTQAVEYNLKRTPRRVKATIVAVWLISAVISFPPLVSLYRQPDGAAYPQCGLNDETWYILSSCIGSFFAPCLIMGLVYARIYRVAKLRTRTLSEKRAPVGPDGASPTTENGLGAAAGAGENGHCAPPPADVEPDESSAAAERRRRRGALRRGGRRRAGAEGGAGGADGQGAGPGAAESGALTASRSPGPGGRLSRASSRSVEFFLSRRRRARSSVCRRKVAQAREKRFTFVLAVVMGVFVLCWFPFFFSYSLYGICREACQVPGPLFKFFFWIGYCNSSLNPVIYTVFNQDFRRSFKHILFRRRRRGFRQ
T3 sequence (P18089 whole entry): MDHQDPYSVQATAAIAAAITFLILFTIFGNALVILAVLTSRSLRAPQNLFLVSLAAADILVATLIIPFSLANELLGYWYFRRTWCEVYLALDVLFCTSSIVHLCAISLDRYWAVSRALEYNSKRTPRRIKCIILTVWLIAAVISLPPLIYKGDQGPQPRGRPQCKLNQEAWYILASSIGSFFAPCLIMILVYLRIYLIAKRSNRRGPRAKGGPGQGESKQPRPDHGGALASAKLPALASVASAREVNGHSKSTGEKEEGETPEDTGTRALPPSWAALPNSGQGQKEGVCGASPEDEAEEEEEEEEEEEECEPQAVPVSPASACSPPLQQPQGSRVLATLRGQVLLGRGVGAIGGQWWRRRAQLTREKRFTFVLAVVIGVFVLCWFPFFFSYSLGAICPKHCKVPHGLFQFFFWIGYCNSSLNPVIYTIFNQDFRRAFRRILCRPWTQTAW

D(1A) dopamine receptor = D(1A) dopamine receptor (Rattus norvegicus, UniProt P18901); experiment: Binding affinity for dopamine receptor D1
D(1A) dopamine receptor, sequence (P18901 whole entry): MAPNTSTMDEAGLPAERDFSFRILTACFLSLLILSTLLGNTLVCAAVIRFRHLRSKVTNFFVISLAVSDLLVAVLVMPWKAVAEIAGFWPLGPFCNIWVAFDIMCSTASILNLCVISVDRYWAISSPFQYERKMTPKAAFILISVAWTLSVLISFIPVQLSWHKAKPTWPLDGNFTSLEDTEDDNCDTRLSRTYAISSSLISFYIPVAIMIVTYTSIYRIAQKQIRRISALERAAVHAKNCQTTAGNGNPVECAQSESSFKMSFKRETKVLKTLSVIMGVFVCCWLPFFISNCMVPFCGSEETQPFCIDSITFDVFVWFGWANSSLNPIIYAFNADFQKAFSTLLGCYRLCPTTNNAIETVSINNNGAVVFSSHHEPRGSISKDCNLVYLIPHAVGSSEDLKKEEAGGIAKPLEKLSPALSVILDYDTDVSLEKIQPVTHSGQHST

D(2) dopamine receptor = D(2) dopamine receptor (Rattus norvegicus, UniProt P61169); experiment: Binding affinity for dopamine receptor D2
D(2) dopamine receptor, sequence (P61169 whole entry): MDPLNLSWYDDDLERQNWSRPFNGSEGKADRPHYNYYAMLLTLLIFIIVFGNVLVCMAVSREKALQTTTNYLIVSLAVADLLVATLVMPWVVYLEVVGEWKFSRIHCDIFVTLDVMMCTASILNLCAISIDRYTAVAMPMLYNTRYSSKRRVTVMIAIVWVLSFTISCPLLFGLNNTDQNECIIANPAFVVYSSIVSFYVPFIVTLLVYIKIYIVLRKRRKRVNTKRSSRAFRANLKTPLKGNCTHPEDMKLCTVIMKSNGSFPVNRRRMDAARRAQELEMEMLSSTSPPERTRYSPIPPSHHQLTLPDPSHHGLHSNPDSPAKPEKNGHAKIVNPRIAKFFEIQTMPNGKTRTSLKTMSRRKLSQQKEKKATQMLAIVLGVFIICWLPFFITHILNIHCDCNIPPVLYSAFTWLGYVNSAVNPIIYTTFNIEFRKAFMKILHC

[5] = target: Sodium-dependent dopamine transporter (Homo sapiens, UniProt Q01959); experiment: In vitro binding affinity for dopamine uptake site
Sodium-dependent dopamine transporter, sequence (Q01959 whole entry): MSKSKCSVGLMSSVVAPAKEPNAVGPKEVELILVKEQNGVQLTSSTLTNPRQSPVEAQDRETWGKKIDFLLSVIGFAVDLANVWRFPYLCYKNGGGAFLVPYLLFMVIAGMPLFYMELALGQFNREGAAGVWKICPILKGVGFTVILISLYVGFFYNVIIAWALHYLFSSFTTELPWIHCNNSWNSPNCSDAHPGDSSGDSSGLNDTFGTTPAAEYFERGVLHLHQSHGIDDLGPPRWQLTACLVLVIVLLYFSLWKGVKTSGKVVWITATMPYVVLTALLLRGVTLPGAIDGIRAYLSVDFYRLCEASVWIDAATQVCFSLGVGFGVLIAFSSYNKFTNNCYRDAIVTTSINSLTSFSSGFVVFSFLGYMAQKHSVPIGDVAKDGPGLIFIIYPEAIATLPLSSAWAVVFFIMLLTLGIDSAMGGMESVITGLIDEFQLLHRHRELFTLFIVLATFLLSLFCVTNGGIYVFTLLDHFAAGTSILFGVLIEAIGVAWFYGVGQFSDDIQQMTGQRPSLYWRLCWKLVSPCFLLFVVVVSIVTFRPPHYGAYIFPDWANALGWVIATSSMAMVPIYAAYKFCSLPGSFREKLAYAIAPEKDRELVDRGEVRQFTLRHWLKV

Rattus norvegicus [6] = experiment: Compound was tested for the net contralateral rotations in rats 2 hr after administration of 0.1 uM/kg dopamine agonist; Activity expressed as net contralateral rotations / 2 hr; format: functional
Rattus norvegicus [7] = experiment: Compound was tested for the net contralateral rotations in rats 2 hr after administration of 1 uM/kg dopamine agonist; Activity expressed as net contralateral rotations / 2 hr; format: functional
[8] = target: Beta-2 adrenergic receptor (Canis lupus familiaris, UniProt P54833); experiment: Compound was tested in vitro for binding affinity for beta receptor
Beta-2 adrenergic receptor, sequence (P54833 whole entry): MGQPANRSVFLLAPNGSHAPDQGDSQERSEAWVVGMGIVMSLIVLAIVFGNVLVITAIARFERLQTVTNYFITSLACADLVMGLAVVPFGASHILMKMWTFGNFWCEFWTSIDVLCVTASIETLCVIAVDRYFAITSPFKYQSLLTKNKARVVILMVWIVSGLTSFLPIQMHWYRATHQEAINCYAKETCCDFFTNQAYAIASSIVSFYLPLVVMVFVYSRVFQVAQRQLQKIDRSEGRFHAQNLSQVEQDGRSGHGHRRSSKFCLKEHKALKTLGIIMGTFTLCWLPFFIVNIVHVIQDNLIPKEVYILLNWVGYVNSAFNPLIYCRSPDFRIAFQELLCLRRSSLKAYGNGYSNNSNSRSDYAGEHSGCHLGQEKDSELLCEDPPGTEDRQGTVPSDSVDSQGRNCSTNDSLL

Rattus norvegicus [9] = experiment: Compound was tested for the net contralateral rotations in rats 2 hr after administration of 0.1 umol/kg, predosed with SCH-23390 (0.1 umol/kg sc), 40 min prior to injection of test compound; Activity expressed as net contralateral rotations / 2 hr
Rattus norvegicus [10] = experiment: Compound was tested for the net contralateral rotations in rats 2 hr after administration of 1.7 umol/kg, predosed with SCH-23390 (0.05 umol/kg sc), 40 min prior to injection of test compound; Activity expressed as net contralateral rotations / 2ho; format: functional
Rattus norvegicus [11] = experiment: Compound was tested for the net contralateral rotations in rats 2 hr after sc administration of 1.7 umol/kg dopamine agonist; Activity expressed as net contralateral rotations / 2 hr; format: functional
Rattus norvegicus [12] = experiment: Compound was tested for the net contralateral rotations in rats, 2 hr after sc administration of 0.43 umol/kg dopamine agonist; Activity expressed as net contralateral rotations / 2 hr; format: functional

Row | SMILES | Ki (D(1) dopamine receptor) [nM] | Ki (D(1A) dopamine receptor) [nM] | Ki (D(2) dopamine receptor) [nM] | also measured
1 | Br.Cc1ccc2c(c1O)C[C@@H](C1CCCCC1)O[C@H]2CN | 100 | 86.4 | > 30000 | Ki [1]: 54.1 nM; Ki [2]: 242 nM; Ki [3]: > 30000 nM; Ki [4]: 358 nM; Ki [5]: 1870 nM; Activity (Rattus norvegicus [6]): 227; Activity (Rattus norvegicus [7]): 751; Ki [8]: 19200 nM; Activity (Rattus norvegicus [9]): 4
2 | COc1ccc2c(c1O)C[C@@H](c1ccccc1)O[C@H]2CN | 247 | 166 | > 30000 | 
3 | CCCNC[C@@H]1O[C@H](C2CCCCC2)Cc2c1ccc(C)c2O | 454 | 2820 | 2630 | 
4 | NC[C@@H]1O[C@H](c2ccccc2)Cc2c(O)cccc21 | 52.5 | 103 | > 30000 | 
5 | Cl.NC[C@@H]1O[C@H](c2ccccc2)Cc2c1ccc(Br)c2O | 32.4 | 5.1 | 569 | Ki [1]: 312 nM; Ki [2]: 6360 nM; Ki [3]: 1820 nM; Ki [4]: 360 nM; Ki [5]: > 30000 nM; Activity (Rattus norvegicus [6]): 1007; Activity (Rattus norvegicus [7]): 748; Ki [8]: 18400 nM; Activity (Rattus norvegicus [9]): 151
6 | NC[C@@H]1O[C@H](C2CCCCC2)Cc2c1ccc(O)c2O |  | 5.4 | 1120 | 
7 | Cc1ccc2c(c1O)C[C@@H](C1CCCCC1)O[C@H]2CN(C)C | 125 | 284 | 18000 | 
8 | CNC[C@@H]1O[C@H](C2CCCCC2)Cc2c1ccc(C)c2O | 121 | 263 | 4610 | 
9 | Oc1cc2c(cc1O)[C@@H](c1ccccc1)CNCC2 [(R)-SKF-38393] |  |  |  | Activity (Rattus norvegicus [10]): 47; Activity (Rattus norvegicus [11]): 608; Activity (Rattus norvegicus [12]): 241
10 | NC[C@H]1O[C@H](c2ccccc2)Cc2c1ccc(Br)c2O | 197 | 366 | 1960 | 
